# From patent US10287552B2, “Generation of hepatocytes from pluripotent stem cells” (ALBERT EINSTEIN COLLEGE OF MEDICINE, INC., priority 2012, dated 2019)
# System: ATMP-tdT Huh-7 cells
# Test: cis-P toxicity and ATM promoter activity assay
# Type: cell-based, human
# Settings: 15 μM cis-P alone
row,Molecule,ATM promoter activity
1,"N.N.[Cl][Pt][Cl] [Cis-P, cis-platinum, reference compound]",increased

# Same assay, conditions: cis-P plus factor, versus cis-P-treated cells
Molecule,ATM promoter activity,cell viability
FGF2: growth factor identified in eFHLC-CM,lowered ATM promoter activity,improved cell viability
IGF1: growth factor identified in eFHLC-CM,lowered ATM promoter activity,improved cell viability
FGF1: growth factor identified in eFHLC-CM,lowered ATM promoter activity,improved cell viability
VEGF,ineffective,ineffective
"G-CSF: G-CSF (Amgen Inc.), factor identified in eFHLC-CM (protein, UniProt P09919 31-207, looked up) Granulocyte …: TPLGPASSLPQSFLLKCLEQVRKIQGDGAALQEKLVSECATYKLCHPEELVLLGHSLGIPWAPLSSCPSQALQLAGCLSQLHSGLFLYQGLLQALEGISPELGPTLDTLQLDVADFATTIWQQMEELGMAPALQPTQGAMPAFASAFQRRAGGVLVASHLQSFLEVSYRVLRHLAQP",lowered ATM promoter activity,improved cell viability
